Test results reported in patent US12171230B2, “Herbicidal compositions” (Bayer Aktiengesellschaft, priority 2018, dated 2024).

How the values were obtained:
Format in all cases: in vivo
[1] = test system: Alopecurus myosuroides; test: Post-emergence herbicidal action against Alopecurus myosuroides
[2] = test system: Poa annua; test: Post-emergence herbicidal action against Poa annua
Protocol: (§1) When the observed efficacies exceed the formal sum total of the values of the tests with individual applications, they also exceed the expected value according to Colby, which is calculated using the formula below and is likewise regarded as an indication of synergism (cf. S. R. Colby; in Weeds 15 (1967) p. 20 to 22): E^C=A+B−([…])
(§2) Here: • A=efficacy of the active compound (A) in % at an application rate of a g a.i./ha; • B=efficacy of the active compound (B) in % at an application rate of b g a.i./ha; • E^C=expected value of the effect of the combination (A)+(B) in % at the combined application rate a+b g a.i./ha.
(§3) Seeds or rhizome pieces of mono- and dicotyledonous weeds are placed in sandy loam in pots, covered with soil and grown in a greenhouse under good growth conditions (temperature, air humidity, water supply). Three weeks after sowing, the test plants were treated at the three-leaf stage with the compositions according to the invention. The compositions according to the invention formulated as spray powders or as emulsion concentrates were sprayed onto the green plant parts in various dosages with an application rate of 300 to 800 l/ha of water (equivalent). After the test plants have been left to stand in the greenhouse under optimal growth conditions for about 3 to 4 weeks, the action of the preparations is scored visually in comparison to untreated controls. The compositions according to the invention also have good post-emergence herbicidal activity against a broad spectrum of economically important gramineous and broadleaf weeds.

[3] = test system: Viola tricolor; test: Post-emergence herbicidal action against Viola tricolor
[4] = test system: Matricaria inodora; test: Post-emergence herbicidal action against Matricaria inodora
[5] = test system: Bromus sterilis; test: Post-emergence herbicidal action against Bromus sterilis
[6] = test system: Centaurea cyano; test: Post-emergence herbicidal action against Centaurea cyano; settings: 4.5 g of a.i./ha
Protocol: Seeds or rhizome pieces of mono- and dicotyledonous weeds are placed in sandy loam in pots, covered with soil and grown in a greenhouse under good growth conditions (temperature, air humidity, water supply). Three weeks after sowing, the test plants were treated at the three-leaf stage with the compositions according to the invention. The compositions according to the invention formulated as spray powders or as emulsion concentrates were sprayed onto the green plant parts in various dosages with an application rate of 300 to 800 l/ha of water (equivalent).

[7] = test system: Lolium rigidum; test: Post-emergence herbicidal action against Lolium rigidum
[8] = test system: Lamium purpureum; test: Post-emergence herbicidal action against Lamium purpureum
Protocol: as §1, §2, §3

[9] = test system: Phalaris minor; test: Post-emergence herbicidal action against Phalaris minor
[10] = test system: Galium aparine; test: Post-emergence herbicidal action against Galium aparine
Protocol: as §1, §2, §3

[11] = test system: Lolium rigidum (resistant biotype); test: Post-emergence herbicidal action against Lolium rigidum (resistant biotype)
[12] = test system: Pharbitis purpurea; test: Post-emergence herbicidal action against Pharbitis purpurea; settings: post-emergence; 21 DAT; 5 g of a.i./ha
Protocol: as §1, §2, §3

[13] = test system: Bidens pilosa; test: Post-emergence herbicidal action against Bidens pilosa; settings: post-emergence, 21 DAT
Protocol: as §1, §2, §3

[14] = test system: Amaranthus palmeri; test: Post-emergence herbicidal action against Amaranthus palmeri; settings: Amaranthus palmeri, post-emergence, 504 h, read-out: Herbicidal action 21 DAT [%] against Amaranthus palmeri
Protocol: as §1, §2, §3

[15] = test system: Abutilon theophrasti; test: Post-emergence herbicidal action against Abutilon theophrasti
Source text: The following abbreviations are used in the description and the tables that follow: • g of a.i./ha=grams of active substance (active ingredient) (=100% active compound) per hectare; • The sum total of the effects of the individual applications is reported under E^A; • expected values according to Colby are each reported under E^C.
The rating period is reported in days after application (DAT).

CC(C)C1(C)N=C(c2ncccc2C(=O)O)NC1=O (centres unmarked) [(B4.13) Imazapyr]
Herbicidal action in [%] 14 DAT against Alopecurus myosuroides ([1]; 1.5 g of a.i./ha): 10% | Herbicidal action in [%] 14 DAT against Alopecurus myosuroides ([1]; 4.5 g of a.i./ha): 20% | Herbicidal action in [%] 28 DAT against Alopecurus myosuroides ([1]; 4.5 g of a.i./ha): 20% | Herbicidal action in [%] 28 DAT against Poa annua L. ([2]; 0.5 g of a.i./ha): 0% | Herbicidal action in [%] 14 DAT against Poa annua L. ([2]; 1.5 g of a.i./ha): 0% | Herbicidal action in [%] 28 DAT against Poa annua L. ([2]; 1.5 g of a.i./ha): 15% | Herbicidal action in [%] 14 DAT against Poa annua L. ([2]; 4.5 g of a.i./ha): 0% | Herbicidal action in [%] 28 DAT against Poa annua L. ([2]; 4.5 g of a.i./ha): 20% | Herbicidal action in [%] 14 DAT against Viola tricolor ([3]; 0.5 g of a.i./ha): 10% | Herbicidal action in [%] 14 DAT against Viola tricolor ([3]; 1.5 g of a.i./ha): 40% | Herbicidal action in [%] 28 DAT against Viola tricolor ([3]; 1.5 g of a.i./ha): 20% | Herbicidal action in [%] 14 DAT against Viola tricolor ([3]; 4.5 g of a.i./ha): 40% | Herbicidal action in [%] 28 DAT against Viola tricolor ([3]; 4.5 g of a.i./ha): 15% | Herbicidal action in [%] 14 DAT against Matricaria inodora ([4]; 0.5 g of a.i./ha): 0% | Herbicidal action in [%] 28 DAT against Matricaria inodora ([4]; 0.5 g of a.i./ha): 0% | Herbicidal action in [%] 28 DAT against Matricaria inodora ([4]; 4.5 g of a.i./ha): 20% | Herbicidal action in [%] 14 DAT against Bromus sterilis ([5]; 0.5 g of a.i./ha): 0% | Herbicidal action in [%] 14 DAT against Bromus sterilis ([5]; 1.5 g of a.i./ha): 0% | Herbicidal action in [%] 28 DAT against Bromus sterilis ([5]; 1.5 g of a.i./ha): 10% | Herbicidal action in [%] 14 DAT against Bromus sterilis ([5]; 4.5 g of a.i./ha): 25% | Herbicidal action in [%] 28 DAT against Bromus sterilis ([5]; 4.5 g of a.i./ha): 15% | Herbicidal action in [%] 14 DAT against Centaurea cyanus [6]: 10% | Herbicidal action in [%] 28 DAT against Centaurea cyanus [6]: 25% | Herbicidal action in [%] 14 DAT against Lolium rigidum ([7]; 1.5 g of a.i./ha): 0% | Herbicidal action in [%] 28 DAT against Lolium rigidum ([7]; 1.5 g of a.i./ha): 0% | Herbicidal action in [%] 14 DAT against Lolium rigidum ([7]; 4.5 g of a.i./ha): 20% | Herbicidal action in [%] 28 DAT against Lolium rigidum ([7]; 4.5 g of a.i./ha): 15% | Herbicidal action in [%] 14 DAT against Lamium purpureum L. ([8]; 0.5 g of a.i./ha): 0% | Herbicidal action in [%] 28 DAT against Lamium purpureum L. ([8]; 0.5 g of a.i./ha): 0% | Herbicidal action in [%] 14 DAT against Lamium purpureum L. ([8]; 1.5 g of a.i./ha): 25% | Herbicidal action in [%] 28 DAT against Lamium purpureum L. ([8]; 1.5 g of a.i./ha): 0% | Herbicidal action in [%] 14 DAT against Lamium purpureum L. ([8]; 4.5 g of a.i./ha): 40% | Herbicidal action in [%] 28 DAT against Lamium purpureum L. ([8]; 4.5 g of a.i./ha): 20% | Herbicidal action in [%] 14 DAT against Phalaris minor ([9]; 0.5 g of a.i./ha): 0% | Herbicidal action in [%] 28 DAT against Phalaris minor ([9]; 0.5 g of a.i./ha): 0% | Herbicidal action in [%] 14 DAT against Phalaris minor ([9]; 1.5 g of a.i./ha): 0% | Herbicidal action in [%] 28 DAT against Phalaris minor ([9]; 1.5 g of a.i./ha): 10% | Herbicidal action in [%] 14 DAT against Phalaris minor ([9]; 4.5 g of a.i./ha): 25% | Herbicidal action in [%] 28 DAT against Phalaris minor ([9]; 4.5 g of a.i./ha): 20% | Herbicidal action in [%] 28 DAT against Galium aparine ([10]; 0.5 g of a.i./ha): 30% | Herbicidal action in [%] 14 DAT against Galium aparine ([10]; 1.5 g of a.i./ha): 40% | Herbicidal action in [%] 28 DAT against Galium aparine ([10]; 1.5 g of a.i./ha): 50% | Herbicidal action in [%] 14 DAT against Galium aparine ([10]; 4.5 g of a.i./ha): 25% | Herbicidal action in [%] 28 DAT against Galium aparine ([10]; 4.5 g of a.i./ha): 40% | Herbicidal action in [%] 14 DAT against Lolium rigidum (resistant biotype) ([11]; 0.5 g of a.i./ha): 0% | Herbicidal action in [%] 14 DAT against Lolium rigidum (resistant biotype) ([11]; 1.5 g of a.i./ha): 10% | Herbicidal action in [%] 28 DAT against Lolium rigidum (resistant biotype) ([11]; 1.5 g of a.i./ha): 0% | Herbicidal action in [%] 14 DAT against Lolium rigidum (resistant biotype) ([11]; 4.5 g of a.i./ha): 15% | Herbicidal action in [%] 28 DAT against Lolium rigidum (resistant biotype) ([11]; 4.5 g of a.i./ha): 15%

C[n+]1ccc(-c2cc[n+](C)cc2)cc1 [(B5.37) Paraquat]
Herbicidal action 21 DAT [%] against Pharbitis purpurea [12]: 15% | Herbicidal action 21 DAT [%] against Bidens pilosa ([13]; 5 g of a.i./ha): 0% | Herbicidal action 21 DAT [%] against Bidens pilosa ([13]; 45 g of a.i./ha): 10% | pest or weed control at 5 g/ha [14]: 0% | pest or weed control at 45 g/ha [14]: 10% | Herbicidal action 21 DAT [%] against Abutilon theophrasti ([15]; 5 g of a.i./ha): 0% | Herbicidal action 21 DAT [%] against Abutilon theophrasti ([15]; 45 g of a.i./ha): 10%
